# PMC6347765, “Streamlined SMFA and mosquito dark-feeding regime significantly improve malaria transmission-blocking assay robustness and sensitivity” (Malaria Journal, 2019)
# Experiments:
# [1] = tested on: P. falciparum NF54 in An. coluzzii; assay: Standard membrane feeding assay (SMFA) with AMPs added to gametocytaemic blood mix; oocyst counts in mosquito midguts; format: in vivo, Plasmodium falciparum; settings: AMP at 50 μM final concentration in gametocytaemic blood mix fed to An. coluzzii; vs PBS-treated control; oocysts counted seven days post-infection; P < 0.001; Fig. 4a
# Description: The An. coluzzii N’gousso strain colonized from field-collected mosquitoes of the An. gambiae M molecular form in 2006 in Yaoundé, Cameroon, and the P. falciparum NF54 strain (MRA-1000, patient E) obtained from the MR4 were used for all the experiments reported in this paper. Mosquitoes were reared and maintained at standard insectary conditions (27 ± 1 °C and 70 ± 5%) humidity on a 12:12 light/dark (L:D) cycle: 11.5 h full light of ~ 300 lx starting at 6 am and 11.5 h darkness starting at 6 p.m., separated by 0.5 h dawn and dusk transitions, respectively. All mosquito infection experiments took place between 2 and 4 p.m.
# Day 16/17. Gametocyte feeding A 14/15-day old gametocyte culture is used for mosquito infections. Three hours before gametocyte feed, the fructose-soaked cotton ball is removed from the cups to starve the mosquitoes, and mosquito cups are placed in the dark inside a second container for biosafety reasons. The container is placed in an incubator set at standard insectary conditions described above.
# One hour before feeding heat-inactivated human serum (56 °C for 30 min) is defrosted at RT and placed on heat block at 37 °C. […]
# The gametocyte culture is hand-swirled and placed on 37 °C heat block. […] The number of exflagellation centres formed in the 4 × 4 grid is determined under the microscope (10× objective). […]
# [2] = tested on: different Plasmodium species; settings: injection into anopheline mosquitoes previously infected with different Plasmodium species; cited from earlier work
# Excerpt: (§1) AMPs from various sources with different levels of plasmodicidal activities have been previously discovered. […] Both AMPs were previously shown to induce parasite killing.
# P. berghei ookinetes = settings: 50 μM concentration; in vitro produced P. berghei ookinetes; cited from earlier work
# Excerpt: as §1
# P. falciparum = settings: mixed with gametocytic blood; An. coluzzii; no reference printed in this sentence (preceding sentence ref 34); cited from earlier work
# Excerpt: as §1
# P. berghei = settings: in both An. coluzzii and Anopheles stephensi; cited from earlier work
# Excerpt: as §1
Substance,transmission-blocking activity (oocyst infection intensity) compared to control [1],effect on parasite sporogony [2],killing of ookinetes (P. berghei ookinetes),P. falciparum oocyst prevalence and intensity (P. falciparum),infection prevalence and intensity (P. berghei)
magainin,significant transmission-blocking activity,completely block parasite sporogony,,,
melittin,significant transmission-blocking activity,,kill,reduce P. falciparum oocyst prevalence and intensity,significant decrease in infection prevalence and intensity
